The text below walks through data of patent US20250228848A1, “PROCESS FOR MAKING A KRAS G12C INHIBITOR” (ELI LILLY AND COMPANY, priority 2022, published 2025).

One experiment addresses KRas G12C (Homo sapiens, UniProt P01116, G12C). Description: KRas G12C Probe Occupancy TR-FRET Assay. It counts as binding. The settings on record: for IC50 concentrations relative to Examples 1, 3, 5, and 7 (the P atropisomer designations): comparison of M with P atropisomers, Table 3. From the text: The purpose of this assay is to measure the ability of an inhibitor to compete with a probe for binding to and covalently modifying KRas G12C at codon 12. The signal is generated by the time-resolved transfer of fluorescence between europium on an antibody bound to KRas G12C Europium-labeled Anti-Histidine Tag Antibody LanthaScreen (the Eu Anti-His antibody) and fluorescent Tracer 647 (Alexa Fluor™) bound to KRas G12C through streptavidin and a biotinylated inhibitor (the “KRas Probe”, see Preparation 223).
Inhibitors are tested in dose response format from 10 mM stocks in 100% DMSO. The Labycyte Echo® 555 is used to dilute and transfer 100 nL per well containing a 10 point, 2.8-fold serial dilution to an assay plate. Two copies of the assay plate are prepared to measure the potency after 5 and 60 minutes incubation of the inhibitor with KRas G12C. His-tagged KRas G12C (20 nM) is added to the plates in assay buffer (20 mM Tris-HCl, pH 7.5, 0.01% TX-100, and 1 mM DTT). After 5 or 60 minutes incubation, 1 μM KRas Probe is added and allowed to covalently modify free KRas G12C for 1 hour. This is diluted 4-fold in buffer containing Eu Anti-His antibody and Streptavidin-Coated Tracer 647 (both from Life Technologies) to achieve KRas G12C (5 nM), Anti-His Antibody (2 nM), KRas Probe ([…]), and Streptavidin Coated Tracer 647 (500 nM). After 30 minutes, the fluorescent signal is read on an Envision™ Plate Reader (excitation at 340 nm, tracer emission (em) at […], and antibody emission at 615 nm). Maximum control wells lack inhibitor and minimum control wells lack both inhibitor and KRas G12C. The signal ratio (em at 665/em at 615) is converted to percent inhibition using the following equation: % Inhibition=100−[(Test Compound Signal−Median Minimum Signal)/(Median Maximum Signal−Median Minimum Signal)×100]. The IC50 is determined by fitting the percent inhibition at each inhibitor concentration to the four parameter nonlinear logistic equation using Genedata Screener®: y=(A+((B−A)/(1+((C/x)∧D)))) where, y=% inhibition, A=minimum asymptote, B=maximum asymptote, C=relative IC50 or the inhibitor concentration producing 50% inhibition within the fitted range of both asymptotes, and D=Hill Slope. Compounds within the scope of this disclosure are evaluated in this assay substantially as described above.

The test system of experiment [1] is phosphorylation of p-ERK1/2 in human lung cancer cells H358. The experiment in a line: H358 Cellular Phospho-ERK AlphaLISA. It counts as cell-based. The following applies: incubated for 2 hours with compound, p-ERK 1/2 (Thr202/Tyr204). The procedure:
Briefly, the AlphaLISA® SureFire® Ultra™ p-ERK 1/2 (Thr202/Tyr204) assay is a sandwich immunoassay for quantitative detection of phospho-ERK 1/2 (phosphorylated on Thr202/Tyr204 in ERK1, or Thr185/Tyr187 in ERK2) in cellular lysates using Alpha Technology (Perkin Elmer Cat #ALSU-PERK-A50K).
The next morning, 10 μL of serially-diluted (3-fold) test compounds (50 μM top concentration) and 10 μL of controls (Maximum signal wells: 5% DMSO and Minimum signal wells: 2 μM of N-(3-{3-cyclopropyl-5-[(2-fluoro-4-iodophenyl)amino]-6,8-dimethyl-2,4,7-trioxo-3,4,6,7-tetrahydropyrido[4,3-D]pyrimidin-1(2H)-yl}phenyl)acetamide (trametinib, as a positive control) are added to the cell plate and incubated for 2 hours in humid trays at 37° C./5% CO2. Lysis Buffer is prepared at ambient temperature containing a protease and phosphatase inhibitor cocktail. Culture medium is removed by inverting and shaking the cell plate in the sink and then blotting onto a paper towel. Lysis buffer is added to the cell plate (50 μL per well) and the plate is incubated at ambient temperature for 10 minutes on a shaker. For p-ERK detection, acceptor beads are diluted into a suspension mixture with buffer. Using a STARlet liquid handler, 5 μL of acceptor beads and 2 μL of cell lysate are transferred as a single-step in-tip dilution to a 384 well assay plate. The assay plate is sealed with foil and is incubated at ambient temperature for 2 hours. Donor beads are diluted into a suspension mixture with buffer. Using the STARlet, 5 μL of donor beads are added to the assay plate that is then sealed, wrapped with foil. The plate is incubated at ambient temperature for 2 hours in the dark. The assay plate is then read on an EnVision™ Plate Reader (Perkin Elmer) using a luminescence program.
The signal is converted to percent inhibition using the following equation: % Inhibition=100−[(Test Compound Signal−Median Minimum Signal)/(Median Maximum Signal−Median Min Signal)×100]. The Maximum signal is a control well without inhibitor.
(§1) Compounds within the scope of this disclosure are evaluated in this assay substantially as described above.

Experiment [2] has as its system constitutive RAS GTPase activity in human lung cancer cells H358. Description: H358 Cellular Active RAS GTPase ELISA. It counts as cell-based. The following applies: serum free media, incubated for 2 hours with compound. The procedure:
Activated RAS (GTP-bound) in cell extracts specifically bind to the Raf-RBD. Bound RAS is detected with a primary antibody that recognizes human KRas. A secondary antibody conjugated with HRP recognizes the primary antibody and a development solution provides a chemiluminescent readout.
The next morning, 10 μL of serially-diluted (3-fold) test compounds (500 μM top concentration) and 10 μL of controls (Maximum signal wells: 5% DMSO and Minimum signal wells: 500 μM 1-[4-[6-chloro-8-fluoro-7-(3-hydroxy-1-naphthyl)quinazolin-4-yl]piperazin-1-yl]prop-2-en-1-one, WO2015054572 as an inhibitor) are added to the cell plate and incubated for 2 hours at 37° C./5% CO2. Complete Lysis/Binding Buffer is prepared containing Protease Inhibitor cocktail and GST-Raf-RBD and stored on ice. One hour before cell plate incubation is completed, 50 μL of GST-Raf-RBD is diluted in lysis/binding buffer, and buffer is added to the ELISA assay plate and which is incubated for 1 hour at 4° C. with gently rocking. After 2 hours, the cells are washed with 100 μL ice-cold PBS and lysed with 100 μL lysis/binding buffer. The cell plate is shaken for 10 minutes at ambient temperature. The cell plate is then centrifuged at 1500 rpm for 10 minutes at ambient temperature. During this time, 1×Wash Buffer is prepared at ambient temperature and then is used to wash (3×100 μL) the GST-Raf-RBD coated assay plate. After washing, 50 μL of cell lysate is added to the GST-Raf-RBD coated assay plate and incubated for 1 hour at ambient temperature with gentle shaking. During this incubation period, 1×Antibody Binding Buffer is prepared and brought to ambient temperature. The assay plate is washed 3×100 μL with 1×Wash Buffer and then 50 μL of Primary Antibody (diluted 1:500 in 1×Antibody Binding buffer) is added. The plate is incubated for 1 hour at ambient temperature. The assay plate is washed 3×100 μL with 1×Wash Buffer and then 50 μL of Secondary Antibody (diluted 1:5000 in 1×Antibody Binding buffer) is added and incubated for 1 hour at ambient temperature. The assay plate is washed 4×100 μL with 1×Wash buffer and then 50 μL of chemiluminescent working solution is added at ambient temperature. The assay plate is then read on an EnVision™ Plate Reader (Perkin Elmer) using a luminescence program.
The signal is converted to percent inhibition using the following equation: % Inhibition=100−[(Test Compound Signal−Median Minimum Signal)/(Median Maximum Signal−Median Minimum Signal)×100]. The Maximum signal is a control well without inhibitor.
as §1
For orientation: ELISA stands for enzyme-linked immunosorbent assay.

The mark [3] stands for this setting: 5 minutes incubation of the inhibitor with His-tagged KRas G12C before KRas Probe, read-out: IC50 (nM) @ 5 min.
[4] abbreviates: 60 minutes incubation of the inhibitor with His-tagged KRas G12C before KRas Probe, read-out: IC50 (nM) @ 60 min.

Molecules are shown by their SMILES. Like-named read-outs stand apart in the source and are kept apart here.

KRas G12C, sequence (P01116 1-188 isoform P01116-2 G12C): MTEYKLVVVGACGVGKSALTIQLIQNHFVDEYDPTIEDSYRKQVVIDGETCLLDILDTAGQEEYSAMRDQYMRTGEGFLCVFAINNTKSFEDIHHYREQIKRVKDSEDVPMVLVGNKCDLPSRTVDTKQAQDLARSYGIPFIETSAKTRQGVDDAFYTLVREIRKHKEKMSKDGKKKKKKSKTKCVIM

`C=CC(=O)N1CCN2C(=O)c3cc(Cl)c(-c4ccc(F)c5sc(N)nc45)c(Cl)c3OCC[C@H]2C1` (single isomer, unassigned) [Example 1]: the concentration for half-maximal inhibition (IC50) – broadly, the midpoint of a concentration-inhibition curve – at KRas G12C (setting [3]) came out at 18600 nM; on KRas G12C (setting [4]), 16000 nM; in experiment [1] it was 2.46 µM; in experiment [2] (read-out: IC50) it was 14.4 µM.
Regarding `C=CC(=O)N1CCN2C(=O)c3cc(Cl)c(-c4ccc(F)c5sc(N)nc45)c(Cl)c3OCC[C@H]2C1` (single isomer, unassigned) [Example 2], the values for the half-maximal inhibitory concentration (IC50) (on KRas G12C (setting [3]); on KRas G12C (setting [4]); in experiment [2] (read-out: IC50)) were less than 15 nM, less than 15 nM and 0.00671 µM, respectively. Also, the “IC50 concentrations relative to Examples 1, 3, 5, and 7 (the P atropisomer designations)” value at KRas G12C is “superior IC50 concentrations”.
Take `C=CC(=O)N1CCN2C(=O)c3cc(F)c(-c4ccc(F)c5sc(N)c(C#N)c45)c(Cl)c3OC[C@H]2C1` (single isomer, unassigned) [Example 8]: the half-maximal inhibitory concentration (IC50) was less than 15 nM at KRas G12C (setting [3]), less than 15 nM on KRas G12C (setting [4]), 0.000902 µM in experiment [1] and 0.00462 µM in experiment [2] (read-out: IC50). In addition, at KRas G12C, the “IC50 concentrations relative to Examples 1, 3, 5, and 7 (the P atropisomer designations)” value was “superior IC50 concentrations”.
For `C=CC(=O)N1CCN2C(=O)c3cc(F)c(-c4cccc5sc(N)c(C#N)c45)c(Cl)c3OCC[C@H]2C1` (single isomer, unassigned) [Example 3], the 50% inhibitory concentration (IC50) was 451 nM at KRas G12C (setting [3]), 843 nM at KRas G12C (setting [4]), 0.206 µM in experiment [1] and 0.902 µM in experiment [2] (read-out: IC50).
`C=CC(=O)N1CCN2C(=O)c3cc(F)c(-c4ccc(F)c5sc(N)c(C#N)c45)c(Cl)c3OCC[C@H]2C1` (single isomer, unassigned) [Example 6]: the IC50 on KRas G12C (setting [3]) was less than 15 nM; on KRas G12C (setting [4]) it was less than 15 nM; in experiment [1], 0.000649 µM; in experiment [2] it was 0.00331 µM. Also, the “IC50 concentrations relative to Examples 1, 3, 5, and 7 (the P atropisomer designations)” value at KRas G12C is “superior IC50 concentrations”.
Consider `C=CC(=O)N1CCN2C(=O)c3cc(F)c(-c4ccc(F)c5sc(N)c(C#N)c45)c(Cl)c3OC[C@H]2C1` (single isomer, unassigned) [Example 7], for which the half-maximal inhibitory concentration (IC50) at KRas G12C (setting [3]) amounted to 26900 nM; on KRas G12C (setting [4]), 17900 nM; in experiment [1], 2.98 µM; in experiment [2] (read-out: IC50) it was 23.8 µM.
In the case of `C=CC(=O)N1CCN2C(=O)c3cc(F)c(-c4ccc(F)c5sc(N)c(C#N)c45)c(Cl)c3OCC[C@H]2C1` (single isomer, unassigned) [Example 5], the concentration for half-maximal inhibition (IC50) at KRas G12C (setting [3]) was 3270 nM; on KRas G12C (setting [4]) it was 3250 nM; in experiment [1], 0.33 µM; in experiment [2], 1.77 µM.
For the compound `C=CC(=O)N1CCN2C(=O)c3cc(F)c(-c4cccc5sc(N)c(C#N)c45)c(Cl)c3OCC[C@H]2C1` (single isomer, unassigned) [Example 4], the IC50 is less than 15 nM on KRas G12C (setting [3]), less than 15 nM on KRas G12C (setting [4]), 0.00131 µM in experiment [1] and 0.00566 µM in experiment [2] (read-out: IC50). In addition, on KRas G12C, the “IC50 concentrations relative to Examples 1, 3, 5, and 7 (the P atropisomer designations)” value was “superior IC50 concentrations”.
